The target of series [1] is T1, QC (Homo sapiens, UniProt Q16769). Briefly: Inhibitor assay: Ki determination in the human QC catalyzed reaction. The class given is biochemical. Also noted: The cDNA of the mature QC starting with codon 38 was fused in frame with the plasmid encoded 6×histidine tag; 6xHis; made in house; host or cells: Pichia pastoris X33 (pPICZαB); also E. coli M15 (pQE-31). Particulars: text of example 7. An excerpt: (§1) Excitation/emission wavelengths were 380/460 nm.

For series [2], the target named is T1, QC. Briefly: Inhibition and inactivation of human QC by chelators. As to conditions: for inhibition of human QC catalyzed substrate cyclization: competitive and time-dependent for the chelators. More on the design: The cDNA of the mature QC starting with codon 38 was fused in frame with the plasmid encoded 6×histidine tag; 6xHis; made in house; host or cells: Pichia pastoris X33 (pPICZαB); also E. coli M15 (pQE-31). The class given is biochemical.

Series [3] deals with mammalian QC. As to conditions: Busby et al. 1987; cited from earlier work.
Series [4] has as its target T1, QC. In words: Continuous spectrophotometric assay of QC substrate conversion (glutamate dehydrogenase coupled), human QC.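 Note: initial rates read in microplates at 30 °C, with enzyme activity quantified against an ammonia calibration curve recorded under the same assay conditions.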
Protocol: The initial velocities were evaluated and the enzymatic activity was determined from a standard curve of ammonia under assay conditions. All samples were measured at 30° C., using either the [sequence]luor Plus or the Sunrise (both from TECAN) reader for microplates. Kinetic data was evaluated using GraFit software.
Series [5] addresses T1, QC. Briefly: Qualitative substrate conversion by MALDI-TOF mass spectrometry, human QC. The class given is biochemical. Also noted: The cDNA of the mature QC starting with codon 38 was fused in frame with the plasmid encoded 6×histidine tag; 6xHis; made in house; host or cells: Pichia pastoris X33 (pPICZαB); also E. coli M15 (pQE-31). The procedure:
Matrix-assisted laser desorption/ionization mass spectrometry was carried out using the Hewlett-Packard G2025 LD-TOF System with a linear time of flight analyzer. The instrument was equipped with a 337 nm nitrogen laser, a potential acceleration source (5 kV) and a 1.0 m flight tube. Detector operation was in the positive-ion mode and signals were recorded and filtered using LeCroy 9350M digital storage oscilloscope linked to a personal computer. Samples (5 μl) were mixed with equal volumes of the matrix solution. For matrix solution we used DHAP/DAHC, prepared by solving 30 mg 2′,6′-dihydroxyacetophenone (Aldrich) and 44 mg diammonium hydrogen citrate (Fluka) in 1 ml acetonitrile/0.1% TFA in water (1/1, v/v). […]
In order to further investigate the specificity and selectivity of the QCs, peptides were synthesized comprising either a modified N-terminal glutaminyl residue or a modified amino acid in the second position. […] Due to the cyclization of the glutaminyl residue or its analog, respectively, a mass difference of the substrate and the product of catalysis is detected. In cases of ammonia liberation of one mole per mole of substrate, the conversion was also analyzed quantitatively using the spectrophotometric assay.

In series [6] the target is T1, QC. Briefly: Fluorometric assay with pyroglutamyl aminopeptidase as auxiliary enzyme, human QC. The series is classed as biochemical. Also noted: The cDNA of the mature QC starting with codon 38 was fused in frame with the plasmid encoded 6×histidine tag; 6xHis; made in house; host or cells: Pichia pastoris X33 (pPICZαB); also E. coli M15 (pQE-31). As to conditions: H-Gln-AMC as substrate.
Excerpt: Excitation/emission wavelengths were 320/410 nm.
as §1
H-Glu(OMe)-βNA and H-Glu-βNA.

The procedure of series [7]: H-Glu(OMe)-βNA and H-Glu-βNA. […] These fluorogenic substrates were analyzed fluorometrically, utilizing pyroglutamyl aminopeptidase as auxiliary enzyme.
Series [8] relates to DP IV and QC. In words: Consecutive catalysis of DP IV and QC, crude porcine pituitary homogenate with added DPIV, MALDI-TOF. The class given is biochemical. Here is the method:
(§2) Matrix-assisted laser desorption/ionization mass spectrometry was carried out using the Hewlett-Packard G2025 LD-TOF System with a linear time of flight analyzer. […] Samples (5 μl) were mixed with equal volumes of the matrix solution. For matrix solution we used DHAP/DAHC, prepared by solving 30 mg 2′,6′-dihydroxyacetophenone (Aldrich) and 44 mg diammonium hydrogen citrate (Fluka) in 1 ml acetonitrile/0.1% TFA in water (1/1, v/v). A small volume (=1 μl) of the matrix-analyte-mixture was transferred to a probe tip and immediately evaporated in a vacuum chamber (Hewlett-Packard G2024A sample prep accessory) to ensure rapid and homogeneous sample crystallization.

Series [9] deals with T2, purified DP IV (porcine kidney) (Sus scrofa, UniProt P22411).
T2 construct: purified DP IV (porcine kidney); from tissue; host or cells: porcine kidney
Briefly: Cleavage of [Gln^3]Aβ1-11a by DP IV, MALDI-TOF. The class given is biochemical. Here is the method: as §2

The target in series [10] is T1, QC. Briefly: Long-term Glu^1-cyclization of Aβ-derived peptides by recombinant human QC, MALDI-TOF. The series is classed as biochemical. Also noted: The cDNA of the mature QC starting with codon 38 was fused in frame with the plasmid encoded 6×histidine tag; 6xHis; made in house; host or cells: Pichia pastoris X33 (pPICZαB); also E. coli M15 (pQE-31). Particulars: for suppression of [pGlu^3]Aβ3-11a / [pGlu^3]Aβ3-21a formation from Aβ3-11a / Aβ3-21a: 5 mM benzimidazole, pH 5.2 and 6.5; for turnover of glutamate-containing peptide by QC: pH 5.2 and 6.5, respectively. Here is the method: For long-term testing of Glu^1-cyclization, Aβ-derived peptides were incubated in 100 μl 0.1 M sodium acetate buffer, pH 5.2 or 0.1 M Bis-Tris buffer, pH 6.5 at 30° C. Peptides were applied in 0.5 mM [Aβ3-11a] or 0.15 mM [Aβ3-21a] concentrations, and 0.2 U QC was added all 24 hours.
In case of Aβ3-21a, the assays contained 1% DMSO. At different times, samples were removed from the assay tube, peptides extracted using ZipTips (Millipore) according to the manufacturer's recommendations, mixed with matrix solution (1:1 v/v) and subsequently the mass spectra recorded. Negative controls did either contain no QC or heat deactivated enzyme.
The QC-catalyzed formation of [pGlu^3]Aβ3-11a and [pGlu^3]Aβ3-21a was investigated at pH 5.2 and 6.5, respectively. If the QC-inhibitor benzimidazole was added to the solution before starting the assay by addition of QC, substrate conversion resulting in [pGlu^3]Aβ3-11a or [pGlu^3]Aβ3-21a was suppressed (FIGS. 15E and F). If QC was boiled before addition, formation of the pGlu-peptides was negligible (FIGS. 15A and B).

In series [11] the target is T1, QC. In words: LC/MS-analysis of pyroglutamate formation by QC. The class given is biochemical.
[12] abbreviates: Table 6, influence of substrate length.
Where [13] appears, read: Table 1, physiological substrates.
Where [14] appears, read: peptides comprising modified amino acids.

Entries after “also recorded” stand apart in the source; their conditions may differ. Where two headings read alike, the source gives them in different places. Bridge positions count the residues as written; N and C are the ends. Square brackets hold non-standard residues; d marks the D form. Ends that are not written are not given here. Peptide text beside a SMILES is read from it.

In general, kcat/KM refers to the second-order rate constant that governs catalysis at low substrate concentration. As a reminder, the Km is the substrate concentration at which the rate is half of its maximum.

T1 sequence (Q16769 29-361): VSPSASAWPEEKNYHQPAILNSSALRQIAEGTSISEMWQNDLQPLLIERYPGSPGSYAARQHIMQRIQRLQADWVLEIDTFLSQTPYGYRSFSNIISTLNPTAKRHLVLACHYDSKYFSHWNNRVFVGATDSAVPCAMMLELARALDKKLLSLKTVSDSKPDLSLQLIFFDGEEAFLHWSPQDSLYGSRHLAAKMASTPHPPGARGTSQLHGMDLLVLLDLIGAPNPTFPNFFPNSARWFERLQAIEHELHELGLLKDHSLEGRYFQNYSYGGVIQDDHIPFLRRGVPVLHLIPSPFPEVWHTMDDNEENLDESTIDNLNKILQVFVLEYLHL
T2 sequence (P22411 whole entry): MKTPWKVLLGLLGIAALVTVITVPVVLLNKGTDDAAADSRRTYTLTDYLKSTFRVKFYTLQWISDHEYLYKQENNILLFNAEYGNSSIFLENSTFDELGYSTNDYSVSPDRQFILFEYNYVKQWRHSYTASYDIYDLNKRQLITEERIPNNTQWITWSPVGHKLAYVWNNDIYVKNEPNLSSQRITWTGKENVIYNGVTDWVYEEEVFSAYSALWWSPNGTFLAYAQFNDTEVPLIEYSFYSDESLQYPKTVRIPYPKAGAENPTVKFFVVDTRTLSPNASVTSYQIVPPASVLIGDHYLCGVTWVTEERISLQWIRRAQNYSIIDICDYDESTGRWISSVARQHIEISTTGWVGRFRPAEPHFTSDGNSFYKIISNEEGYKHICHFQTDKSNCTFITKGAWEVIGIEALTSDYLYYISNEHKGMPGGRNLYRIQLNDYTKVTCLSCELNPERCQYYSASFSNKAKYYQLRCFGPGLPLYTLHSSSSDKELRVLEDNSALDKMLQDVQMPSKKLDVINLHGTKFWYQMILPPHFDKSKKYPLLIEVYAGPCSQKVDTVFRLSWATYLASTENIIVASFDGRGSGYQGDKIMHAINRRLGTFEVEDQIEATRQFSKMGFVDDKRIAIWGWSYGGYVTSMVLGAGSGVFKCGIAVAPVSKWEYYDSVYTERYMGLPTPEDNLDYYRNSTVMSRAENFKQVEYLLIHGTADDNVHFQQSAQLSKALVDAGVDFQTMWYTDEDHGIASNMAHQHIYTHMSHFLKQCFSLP

On to `Cn1cnc(CCN)c1` [1-methyl-4-(β-aminoethyl)-imidazole], for which the “inhibition of human QC, in words” value in series [1] is “complete loss of inhibitory activity”.

In the case of `Oc1cccc2cccnc12` [8-hydroxyquinoline], the “inhibition of human QC catalyzed substrate cyclization” value in series [2] is “abolished”.

Regarding `O=C(O)CN(CCN(CC(=O)O)CC(=O)O)CC(=O)O` [EDTA], the “inhibition of a mammalian QC” value in [3] is on record as “did not inhibit”. Besides, the “inhibition of human QC catalyzed substrate cyclization” value in [2] is “did not show remarkable inhibition”. Regarding `Cc1cc(=O)oc2cc(NC(=O)[C@@H](N)CCC(N)=O)ccc12` [H-Gln-AMC], in [4] (Table 5, n.r. = not reactive), the kcat/KM stood at 98000 ± 2000 M⁻¹ s⁻¹.

In the case of `C[C@H](NC(=O)[C@H](C)NC(=O)[C@@H](N)CCC(N)=O)C(N)=O` [H-Gln-Ala-Ala-NH2] (H-Gln-Ala-Ala-NH2), the Km in series [4] (setting [12]) came to 87 ± 3 µM.

Turning to `C[C@H](NC(=O)[C@@H](N)CCC(N)=O)C(N)=O` [H-Gln-Ala-NH2] (H-Gln-Ala-NH2), in [4] (setting [12]), the Km was determined as 155 ± 9 µM. For the compound `CC(C)C[C@H](NC(=O)[C@H](CCCNC(=N)N)NC(=O)[C@H](CCCCNC(=O)[C@@H](N)CCC(N)=O)NC(=O)[C@@H](N)CCC(N)=O)C(=O)N[C@@H](C)C(N)=O` [H-Gln-Lys(Gln)-Arg-Leu-Ala-NH2] (H-QK(Gln)RLA-NH2), the “substrate conversion (cyclization) by human QC” value in series [5] was “converted”.

For the compound `NC(=O)CC[C@H](N)C(=O)O` [H-Gln-OH], in [4] (Table 5, n.r. = not reactive), the kcat/KM entry is given as “n.r”.

Regarding `COC(=O)CC[C@H](N)C(=O)N[C@@H](Cc1ccccc1)C(=O)N[C@@H](CCCCN)C(=O)N[C@@H](CCCNC(=N)N)C(=O)N[C@@H](CC(C)C)C(=O)N[C@@H](C)C(N)=O` [H-Glu(OMe)-Phe-Lys-Arg-Leu-Ala-NH2] (H-E(OMe)FKRLA-NH2), in [6], the “inhibition of human QC by the peptide” value is “not inhibited”.

Take `COC(=O)CC[C@H](N)C(=O)Nc1ccc2ccccc2c1` [H-Glu(OMe)-βNA, H-Glu(OMe)-β-naphthylamide]: the “stability in Tris and Tricine buffers” value in [7] was “remarkable instability”. Take `CC(C)[C@H](N)C(=O)N1CCCC1` [Val-Pyrr, Val-Pyrrolidide]: in [8], the “[pGlu^3]Aβ3-11a formation from [Gln^3]Aβ1-11a in presence of catalytically active DP IV and QC” value is “not formed; also recorded: reduction”. Besides, the results for the “prevention of DP IV-catalysed cleavage of [Gln^3]Aβ1-11a” value in series [9] and in [9] (listed as Val-Pyrrolidide) were “completely prevented” and “prevention”, respectively.

`NC(=O)CC[C@H](N)C(=O)N[C@@H](CCC(=O)O)C(=O)N1CCC[C@H]1C(N)=O` [[Gln^1]-FPP] (H-Gln-Glu-Pro-NH2): the Km in [4] (setting [13]) was found to be 87 ± 2 µM. As to `NC(=O)CC[C@H](N)C(=O)N[C@@H](Cc1c[nH]cn1)C(=O)N1CCC[C@H]1C(N)=O` [[Gln^1]-TRH] (H-Gln-His-Pro-NH2), in series [4] (setting [13]), the Km worked out at 90 ± 4 µM. Turning to `c1ccc2[nH]cnc2c1` [benzimidazole], the “suppression of [pGlu^3]Aβ3-11a / [pGlu^3]Aβ3-21a formation from Aβ3-11a / Aβ3-21a” value in [10] is on record as “suppressed”; in series [10] (listed as Benzimidazole), “suppressing”. With `O=C(O)c1cccc(C(=O)O)n1` [dipicolinic acid], the “inhibition of human QC catalyzed substrate cyclization” value in series [2] is recorded as “abolished”. In [2] (dialysis against 5 mM), the “inactivation of human QC after extensive dialysis” value was “almost completely inactivated”. For the compound DAQFRHDSGYE-NH2 [[Gln^3]Aβ1-11a], the “cleavage by DPIV under formation of [Gln^3]Aβ3-11a” value in series [9] was “cleaving”. On to EFRHDSGYE-NH2 [Aβ3-11a], for which the “turnover of glutamate-containing peptide by QC” value in series [10] was “serve as QC-substrates”.

Regarding EFRHDSGYEVHHQKLVFFA-NH2 [Aβ3-21a], in series [10], the “turnover of glutamate-containing peptide by QC” value is “serve as QC-substrates”. For the compound “H-EFKRLA-NH2 [H-Glu-Phe-Lys-Arg-Leu-Ala-NH2]”, in series [6], the “inhibition of human QC by the peptide” value was “not inhibited”. Regarding “H-Gln(NMe)-Phe-Lys-Ala-Glu-NH2 (H-[Gln(NMe)]FKAE-NH2; not fully specified; printed as H-Gln(NMe)-Phe-Lys-Ala-Glu-NH2)”, in series [5], the “substrate conversion (cyclization) by human QC” value is reported as “No substrate conversion”. In addition, the “inhibition of human QC by the peptide” value in series [6] was “not detected”.

On to “H-Gln-cyclo(Nε-Lys-Arg-Pro-Ala-Gly-Phe) (H-QKRPAGF; lactam 2-C; SMILES C[C@@H]1NC(=O)[C@@H]2CCCN2C(=O)[C@H](CCCNC(=N)N)NC(=O)[C@@H](NC(=O)[C@@H](N)CCC(N)=O)CCCCNC(=O)[C@H](Cc2ccccc2)NC(=O)CNC1=O)”, for which, in series [4] (setting [14]), the “kcat (turnover number)” value amounted to 22.8 ± 10.6 s⁻¹ and the kcat/KM-value was found to be 95000 ± 3000 M⁻¹ s⁻¹. Regarding “[Gln^1]-GnRH: GnRH with N-terminal glutamine: QHWSYGL RP(G) amide”, in series [4] (setting [13]), the kcat/KM came out at 1.3057e+06 ± 53200 M⁻¹ s⁻¹. For “[Gln^3]-glucagon(3-29): glucagon fragment 3-29 with N-terminal glutamine”, the “formation of N-terminal pyroglutamate by QC” value in series [11] is recorded as “catalyzed by QC”. In addition, the “second order rate constant” value in [4] (in presence of 1% DMSO) worked out at 526000 M⁻¹ s⁻¹. Besides, the kcat/KM in [4] (recombinant human QC, buffer solution containing 1% DMSO) was 526000 ± 17000 M⁻¹ s⁻¹.

As for “[Gln^5]-substance P(5-11): substance P fragment 5-11 with N-terminal glutamine (QQFFGLM; ends and bridges not checked)”, the “formation of N-terminal pyroglutamate by QC” value in series [11] is recorded as “transformed by QC”.

Consider reduced 6-methylpterin, for which the “inhibition of a mammalian QC” value in series [3] is on record as “Inhibition”.
